Legend:
[1] = biological target: T1, second bromodomain of Brd2 (BRD2(2)) (Homo sapiens, UniProt P25440); experiment: Inhibition of tetra-acetylated histone H4 binding to Brd2 bromodomain 2 (TR-FRET); design: key: Active: Compounds with an IC50 value less than 30 μM were deemed to be active.; Not Active: Compounds with an IC50 value less than 30 μM were deemed to be active; settings: tetra-acetylated histone H4 peptide, active = IC50 <30 μM
T1 construct: made in house; host or cells: E. coli BL21 (DE3)
Method: (§1) Proteins were cloned and overexpressed with a N-terminal 6×His tag, then purified by nickel affinity followed by size exclusion chromatography. Briefly, E. coli BL21 (DE3) cells were transformed with a recombinant expression vector encoding N-terminally Nickel affinity tagged bromodomains from Brd2, Brd3, Brd4. Cell cultures were incubated at 37° C. with shaking to the appropriate density and induced overnight with IPTG. The supernatant of lysed cells was loaded onto Ni-IDA column for purification. Eluted protein is pooled, concentrated and further purified by size exclusion chromatography. Fractions representing monomeric protein were pooled, concentrated, aliquoted, and frozen at −80° C. for use in subsequent experiments.
(§2) Binding of tetra-acetylated histone H4 and BET bromodomains was confirmed by a Time Resolved Fluorescence Resonance Energy Transfer (TR-FRET) method. N-terminally His-tagged bromodomains (200 nM) and biotinylated tetra-acetylated histone H4 peptide (25-50 nM, Millipore) were incubated in the presence of Europium Cryptate-labeled streptavidin (Cisbio Cat. #610SAKLB) and XL665-labeled monoclonal anti-His antibody (Cisbio Cat. #61HISXLB) in a white 96 well microtiter plate (Greiner). For inhibition assays, serially diluted test compound was added to these reactions in a 0.2% final concentration of DMSO. Final buffer concentrations were 30 mM HEPES pH 7.4, 30 mM NaCl, 0.3 mM CHAPS, 20 mM phosphate pH 7.0, 320 mM KF, 0.08% BSA). After a 2-h incubation at room temperature, the fluorescence by FRET was measured at 665 and 620 nm by a SynergyH4 plate reader (Biotek). Illustrative results with the first bromodomain of Brd4 and the second bromodomain of Brd2 are shown below. The binding inhibitory activity was shown by a decrease in 665 nm fluorescence relative to 620 nm. IC50 values were determined from a dose response curve.

[2] = biological target: T2, Brd4 bromodomain 1 (BRD4(1)) (Homo sapiens, UniProt O60885); experiment: Inhibition of tetra-acetylated histone H4 binding to Brd4 bromodomain 1 (TR-FRET); design: key: Active: Compounds with an IC50 value less than 30 μM were deemed to be active.; Not Active: Compounds with an IC50 value less than 30 μM were deemed to be active; settings: tetra-acetylated histone H4 peptide, active = IC50 <30 μM
T2 construct: Illustrative results with the first bromodomain of Brd4; made in house; host or cells: E. coli BL21 (DE3)
Method: as §1, §2

T1 sequence (P25440 344-453 limits assumed): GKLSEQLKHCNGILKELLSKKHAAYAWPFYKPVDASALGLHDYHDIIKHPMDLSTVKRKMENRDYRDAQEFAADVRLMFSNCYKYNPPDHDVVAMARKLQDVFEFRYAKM

Row | SMILES | FRET activity (IC50 <30 μM) BRD2(2) [1] | FRET activity (IC50 <30 μM) BRD4(1) [2]
1 | Cc1oncc1-c1ccc(=O)n(Cc2ccccc2)c1 [Example 57, 1-Benzyl-5-(5-methylisoxazol-4-yl)pyridin-2(1H)-one] | Active | Active
2 | COc1cccc(Cn2nc(-c3c(C)noc3C)ccc2=O)c1 [Example 35, 6-(3,5-Dimethylisoxazol-4-yl)-2-(3-methoxybenzyl)pyridazin-3(2H)-one] | Active | Active
3 | Cc1noc(C)c1-c1ccc(=O)n(CC2CCNCC2)c1 [Example 10, 5-(3,5-Dimethylisoxazol-4-yl)-1-(piperidin-4-ylmethyl)pyridin-2(1H)-one hydrochloric acid] | Active | Active
4 | Cc1noc(C)c1-c1ccc(=O)n(Cc2ccc(CN(C)C)cc2)c1 [Example 9, 1-(4-((Dimethylamino)methyl)benzyl)-5-(3,5-dimethylisoxazol-4-yl)pyridin-2(1H)-one hydrochloric acid] | Active | Active
5 | Cc1noc(C)c1-c1ccc(=O)n(Cc2cccc(C(F)(F)F)c2)n1 [Example 31, 6-(3,5-Dimethylisoxazol-4-yl)-2-(3-(trifluoromethyl)benzyl)pyridazin-3(2H)-one] | Active | Active
6 | Cc1noc(C)c1Nc1ccc(=O)n(Cc2ccccc2)n1 [Example 61] | Active | Active
7 | Cc1noc(C)c1Cn1cc(-c2c(C)noc2C)ccc1=O [Example 11, 5-(3,5-Dimethylisoxazol-4-yl)-1-((3,5-dimethylisoxazol-4-yl)methyl)pyridin-2(1H)-one] | Active | Active
8 | Cc1noc(C)c1-c1ccc(=O)n(Cc2cccc(Cl)c2)n1 [Example 23, 2-(3-Chlorobenzyl)-6-(3,5-dimethylisoxazol-4-yl)pyridazin-3(2H)-one] | Active | Active
9 | Cc1oncc1-c1cc(C)c(=O)n(Cc2ccccc2)n1 [Example 20, 2-Benzyl-4-methyl-6-(5-methylisoxazol-4-yl)pyridazin-3(2H)-one] | Active | Not Active
10 | Cc1noc(C)c1-c1ccc(=O)n(Cc2cccc(OC(F)(F)F)c2)n1 [Example 36, 6-(3,5-Dimethylisoxazol-4-yl)-2-(3-(trifluoromethoxy)benzyl)pyridazin-3(2H)-one] | Active | Active
11 | Cc1noc(C)c1-c1ccc(=O)n(CC2CC2)c1 [Example 48, 1-(Cyclopropylmethyl)-5-(3,5-dimethylisoxazol-4-yl)pyridin-2(1H)-one] | Active | Active

Next, values leading:

Row | FRET activity (IC50 <30 μM) BRD2(2) [1] | FRET activity (IC50 <30 μM) BRD4(1) [2] | SMILES
12 | Active | Active | Cc1noc(C)c1-c1ccc(=O)n(C(C)(C)c2ccccc2)c1 [Example 106, 5-(3,5-Dimethylisoxazol-4-yl)-1-(2-phenylpropan-2-yl)pyridin-2(1H)-one]
13 | Active | Not Active | O=c1ccc(-c2cncs2)cn1Cc1ccccc1 [Example 80, 1-Benzyl-5-(thiazol-5-yl)pyridin-2(1H)-one]
14 | Active | Active | Cc1noc(C)c1-c1ccc(=O)n(Cc2ccc(OC(F)(F)F)cc2)n1 [Example 76, 6-(3,5-Dimethylisoxazol-4-yl)-2-(4-(trifluoromethoxy)benzyl)pyridazin-3(2H)-one]
15 | Active | Active | Cc1noc(C)c1-c1cc(NCc2ccccc2)c(=O)n(Cc2ccccc2)c1 [Example 74, 1-Benzyl-3-(benzylamino)-5-(3,5-dimethylisoxazol-4-yl)pyridin-2(1H)-one]
16 | Active | Active | Cc1noc(C)c1-c1ccc(=O)n(Cc2ccc(S(C)(=O)=O)cc2)c1 [Example 145, 5-(3,5-Dimethylisoxazol-4-yl)-1-(4-(methylsulfonyl)benzyl)pyridin-2(1H)-one]
17 | Active | Active | Cc1noc(C)c1-c1ccc(=O)n(Cc2ccccc2)c1C [Example 115, 1-Benzyl-5-(3,5-dimethylisoxazol-4-yl)-6-methylpyridin-2(1H)-one]
18 | Active | Active | Cc1noc(C)c1-c1ccc(=O)n(C(=O)c2ccc(Cl)cc2)c1 [Example 69, 1-(4-Chlorobenzoyl)-5-(3,5-dimethylisoxazol-4-yl)pyridin-2(1H)-one]
19 | Active | Active | COc1cc(-c2ccc(=O)n(Cc3ccc(S(C)(=O)=O)cc3)n2)cc(OC)c1OC [Example 116, 2-(4-(Methylsulfonyl)benzyl)-6-(3,4,5-trimethoxyphenyl)pyridazin-3(2H)-one]
20 | Active | Active | Cc1noc(C)c1-c1ccc(=O)n(Cc2cc(F)c(F)c(F)c2)n1 [Example 144, 6-(3,5-Dimethylisoxazol-4-yl)-2-(3,4,5-trifluorobenzyl)pyridazin-3(2H)-one]
21 | Active | Not Active | COc1ccc(Oc2ccc(=O)n(Cc3ccccc3)n2)cc1OC [Example 100, 2-Benzyl-6-(3,4-dimethoxyphenoxy)pyridazin-3(2H)-one]
22 | Active | Active | Cc1noc(C)c1-c1ccc(=O)n(Cc2c(F)cc(F)cc2F)n1 [Example 92, 6-(3,5-Dimethylisoxazol-4-yl)-2-(2,4,6-trifluorobenzyl)pyridazin-3(2H)-one]
23 | Active | Not Active | O=c1ccc(-c2ccnc(O)c2)cn1Cc1ccccc1 [Example 62, 1-Benzyl-2′-hydroxy-[3,4′-bipyridin]-6(1H)-one]
24 | Active | Active | Cc1n[nH]c(C)c1-c1ccc(=O)n(Cc2ccccc2)n1 [Example 86, 2-Benzyl-6-(3,5-dimethyl-1H-pyrazol-4-yl)pyridazin-3(2H)-one]
